Test results published in US3971737A, “[2-Methyl-Ala^6 ]LRH” (American Home Products Corporation, priority 1975, dated 1976).
Several values for one entry are separate records, joined by “and”; a condition that tells them apart may be missing. Identical values can stand only once. Entries after “also recorded” stand apart in the source; their conditions may differ.

Assays:
[1] = test system: luteinizing hormone (LH) in the blood serum of ovariectomized rats; assay: LH release in ovariectomized rats pretreated with estradiol and progesterone; serum LH by radioimmunoassay; format: in vivo, rat
Procedure: This fact was established, in vivo, by measuring the increase of LH (before and after administration of [2-methyl-Ala^6 ]LRH) in the blood serum of ovariectomized rats pretreated with estradiol and progesterone according to the procedure of Schally et al., J. Biol. Chem. 246, 7230 (1971). The LH concentration in the blood serum was determined by radioimmunoassy according to the procedure of Berson et al., Metabolism 13, 1135 (1964). The results of this test are as follows: Dose nanograms ng LH/ml Serum % Dif- (ng) Animal No. Pre Post erence ______________________________________ 10 1 404.92 932.87 […] 10 2 541.37 1062.03 96.17 10 3 441.25 1568.03 255.43 10 4 459.07 1082.72 135.85 10 5 759.11 1681.84 111.52 No. of observations 5 5 5 Mean 523.34 1265.56 145.87 Standard error 70.34 150.08 28.28 T-value 5.1586 P-value 0.0080 ______________________________________

[2] = test system: Sprague-Dawley rats (pregnancy); conditions: found by Alan Corbin (copending application Ser. No. 561,524), cited from earlier work

In the case of CC(C)C[C@H](NC(=O)C(C)(C)NC(=O)[C@H](Cc1ccc(O)cc1)NC(=O)[C@H](CO)NC(=O)[C@H](Cc1c[nH]c2ccccc12)NC(=O)[C@H](Cc1c[nH]cn1)NC(=O)[C@@H]1CCC(=O)N1)C(=O)N[C@@H](CCCNC(=N)N)C(=O)N1CCC[C@H]1C(=O)NCC(N)=O [[2-methyl-Ala^6]LRH, L-(5-oxoprolyl)-L-histidyl-L-tryptophyl-L-seryl-L-tyrosyl-2-methylalanyl-L-leucyl-L-arginyl-L-prolylglycinamide], the “ng LH/ml Serum, Post (Mean)” value ([1]; dose 10 ng, mean of 5 ovariectomized, estradiol/progesterone-pretreated rats, after administration (pre mean 523.34), standard error 150.08) is reported as 1265.56 ng LH/ml, the “% Difference of serum LH, pre vs post (Mean)” value ([1]; dose 10 ng, mean of 5 rats, standard error 28.28, P-value 0.0080) is reported as 145.87% and the “% Difference of serum LH, pre vs post (individual animals No. 1-5)” value ([1]; dose 10 ng, single animals 1 to 5 in order) is reported as 255.43% and 135.85% and 111.52% and 103.38% and 96.17%. For the same molecule, the “ng LH/ml Serum, Post (individual animals No. 1-5)” value ([1]; dose 10 ng, single animals 1 to 5 in order, after administration) was 932.87 ng LH/ml and 1062.03 ng LH/ml and 1568.03 ng LH/ml and 1082.72 ng LH/ml and 1681.84 ng LH/ml, the “LH-releasing / LRH agonist activity (in words)” value ([1]; in vivo, ovariectomized rats pretreated with estradiol and progesterone) was “active releaser of luteinizing hormone (LH); also recorded: active LRH agonist” and the pregnancies prevented ([2]; 500 micrograms per day) was 100%. The “claudogenic/interceptive activity (in words)” value [2] was “active claudogenic/interceptive agent”.
